Assay results published in PMC5218480 (PLoS ONE, 2017).

System: MV-4-11 cells
Experiment: Gene expression microarray analysis (Affymetrix PrimeView) and GSEA
Type: cell-based, human
Design: RFU PODN (11730768_x_at) / Fold change /veh PODN (11730768_x_at) / RFU LINC00158 (11744669_a_at) / Fold change /veh LINC00158 (11744669_a_at) / RFU DUSP10 (11751237_a_at) / Fold change /veh DUSP10 (11751237_a_at) / RFU ID3 (11757404_x_at) / Fold change /veh ID3 (11757404_x_at) / RFU PLEKHG5 (11737974_s_at) / Fold change /veh PLEKHG5 (11737974_s_at) / RFU LRRC4B (11730491_at) / Fold change /veh LRRC4B (11730491_at) / RFU GIMAP4 (11747438_a_at) / Fold change /veh GIMAP4 (11747438_a_at) / RFU KRT8 (11758183_x_at) / Fold change /veh KRT8 (11758183_x_at) / RFU CNN1 (11734310_a_at) / Fold change /veh CNN1 (11734310_a_at) / RFU VPS37D (11726825_at) / Fold change /veh VPS37D (11726825_at) / RFU C10orf10 (11716522_x_at) / Fold change /veh C10orf10 (11716522_x_at) / RFU KIR2DL2 /// KIR2DL4 /// KIR2DL5A /// KIR2DL5B /// KIR2DS1 /// KIR2DS2 /// KIR2DS3 /// KIR2DS4 /// KIR3DL3 /// KIR3DL3 /// KIR3DS1 (11738374_at) / Fold change /veh KIR2DL2 /// KIR2DL4 /// KIR2DL5A /// KIR2DL5B /// KIR2DS1 /// KIR2DS2 /// KIR2DS3 /// KIR2DS4 /// KIR3DL3 /// KIR3DL3 /// KIR3DS1 (11738374_at) / RFU C1QL1 (11718748_at) / Fold change /veh C1QL1 (11718748_at) / RFU TMPRSS4 (11747572_a_at) / Fold change /veh TMPRSS4 (11747572_a_at) / RFU HAMP (11756126_x_at) / Fold change /veh HAMP (11756126_x_at) / RFU RNFT2 (11725882_a_at) / Fold change /veh RNFT2 (11725882_a_at) / RFU NR4A2 (11747474_a_at) / Fold change /veh NR4A2 (11747474_a_at) / RFU ABCC12 (11746883_a_at) / Fold change /veh ABCC12 (11746883_a_at) / RFU TMEM136 (11760407_x_at) / Fold change /veh TMEM136 (11760407_x_at) / RFU CLDN22 /// WWC2 (11732394_at) / Fold change /veh CLDN22 /// WWC2 (11732394_at) / RFU HLA-DPB1 (11760878_x_at) / Fold change /veh HLA-DPB1 (11760878_x_at) / RFU SPINT1 (11716480_a_at) / Fold change /veh SPINT1 (11716480_a_at) / RFU GAP43 (11754022_s_at) / Fold change /veh GAP43 (11754022_s_at) / RFU A4GNT (11735810_at) / Fold change /veh A4GNT (11735810_at) / RFU PRB3 (11715151_x_at) / Fold change /veh PRB3 (11715151_x_at) / RFU TUBB4B (11761932_at) / Fold change /veh TUBB4B (11761932_at) / RFU CAPN14 (11732068_a_at) / Fold change /veh CAPN14 (11732068_a_at) / RFU TMCC2 (11721928_a_at) / Fold change /veh TMCC2 (11721928_a_at) / RFU IRGQ (11745062_a_at) / Fold change /veh IRGQ (11745062_a_at) / RFU FAM174B (11720279_a_at) / Fold change /veh FAM174B (11720279_a_at) / RFU TMPRSS4 (11748680_a_at) / Fold change /veh TMPRSS4 (11748680_a_at) / RFU FAM212B (11763350_a_at) / Fold change /veh FAM212B (11763350_a_at) / RFU PLEKHG5 (11743358_a_at) / Fold change /veh PLEKHG5 (11743358_a_at) / RFU ZSCAN30 (11745921_a_at) / Fold change /veh ZSCAN30 (11745921_a_at) / RFU CMKLR1 (11741424_a_at) / Fold change /veh CMKLR1 (11741424_a_at) / RFU LOC101060620 /// MAPK8IP1 (11723275_at) / Fold change /veh LOC101060620 /// MAPK8IP1 (11723275_at) / RFU SPTSSB (11747773_x_at) / Fold change /veh SPTSSB (11747773_x_at) / RFU PRSS12 (11739890_at) / Fold change /veh PRSS12 (11739890_at) / RFU BIN1 (11741810_x_at) / Fold change /veh BIN1 (11741810_x_at) / RFU WNT11 (11732464_a_at) / Fold change /veh WNT11 (11732464_a_at) / RFU C10orf10 (11716521_a_at) / Fold change /veh C10orf10 (11716521_a_at) / RFU C5orf56 (11738089_at) / Fold change /veh C5orf56 (11738089_at) / RFU CYB561 (11721691_x_at) / Fold change /veh CYB561 (11721691_x_at) / RFU ANKRD19P (11752326_a_at) / Fold change /veh ANKRD19P (11752326_a_at) / RFU OR2T12 /// OR2T33 /// OR2T8 (11738714_s_at) / Fold change /veh OR2T12 /// OR2T33 /// OR2T8 (11738714_s_at) / RFU VCAN (11748164_a_at) / Fold change /veh VCAN (11748164_a_at) / RFU JSRP1 (11732532_at) / Fold change /veh JSRP1 (11732532_at) / RFU KRTAP10-11 (11738290_x_at) / Fold change /veh KRTAP10-11 (11738290_x_at) / RFU MYO3A (11730013_a_at) / Fold change /veh MYO3A (11730013_a_at) / RFU EBF3 (11725865_a_at) / Fold change /veh EBF3 (11725865_a_at) / RFU CAMK2N1 (11719241_x_at) / Fold change /veh CAMK2N1 (11719241_x_at) / RFU C5orf56 (11738088_a_at) / Fold change /veh C5orf56 (11738088_a_at) / RFU OLFML3 (11715873_a_at) / Fold change /veh OLFML3 (11715873_a_at) / RFU LOC100653217 /// NTM (11731650_a_at) / Fold change /veh LOC100653217 /// NTM (11731650_a_at) / RFU MAPK11 (11762145_a_at) / Fold change /veh MAPK11 (11762145_a_at) / RFU FIZ1 (11724087_x_at) / Fold change /veh FIZ1 (11724087_x_at) / RFU OASL (11726364_x_at) / Fold change /veh OASL (11726364_x_at) / RFU SOX15 (11748057_x_at) / Fold change /veh SOX15 (11748057_x_at) / RFU CD79A (11719716_a_at) / Fold change /veh CD79A (11719716_a_at) / RFU HIST1H1D (11736915_at) / Fold change /veh HIST1H1D (11736915_at) / RFU CASKIN2 (11723855_a_at) / Fold change /veh CASKIN2 (11723855_a_at) / RFU LOC730098 (11760151_x_at) / Fold change /veh LOC730098 (11760151_x_at) / RFU OR4N2 (11742367_at) / Fold change /veh OR4N2 (11742367_at) / RFU PRRT2 (11749266_a_at) / Fold change /veh PRRT2 (11749266_a_at) / RFU SNX32 (11753110_a_at) / Fold change /veh SNX32 (11753110_a_at) / RFU CDHR5 (11726645_a_at) / Fold change /veh CDHR5 (11726645_a_at) / RFU RCAN1 (11760418_a_at) / Fold change /veh RCAN1 (11760418_a_at) / RFU FAM167A (11723789_a_at) / Fold change /veh FAM167A (11723789_a_at) / RFU FAM26E (11764081_at) / Fold change /veh FAM26E (11764081_at) / RFU ISYNA1 (11749810_s_at) / Fold change /veh ISYNA1 (11749810_s_at) / RFU ACY1 (11761880_at) / Fold change /veh ACY1 (11761880_at) / RFU 11764098_at / Fold change /veh 11764098_at / RFU SAMD14 (11745864_x_at) / Fold change /veh SAMD14 (11745864_x_at) / RFU NPB (11741838_a_at) / Fold change /veh NPB (11741838_a_at) / RFU TMPRSS6 (11731388_a_at) / Fold change /veh TMPRSS6 (11731388_a_at) / RFU KRTAP10-2 (11738614_at) / Fold change /veh KRTAP10-2 (11738614_at) / RFU ARHGAP8 /// PRR5-ARHGAP8 (11727945_x_at) / Fold change /veh ARHGAP8 /// PRR5-ARHGAP8 (11727945_x_at) / RFU KRTAP5-7 /// NADSYN1 (11734609_at) / Fold change /veh KRTAP5-7 /// NADSYN1 (11734609_at) / RFU RASL12 (11751679_a_at) / Fold change /veh RASL12 (11751679_a_at) / RFU CDKN2B (11736163_a_at) / Fold change /veh CDKN2B (11736163_a_at) / RFU PRF1 (11729649_at) / Fold change /veh PRF1 (11729649_at) / RFU, ZNF638 /// ZNF638-IT1 / Fold change vs veh, ZNF638 /// ZNF638-IT1 / RFU, PANK3 / Fold change vs veh, PANK3 / RFU, SH3YL1 / Fold change vs veh, SH3YL1 / RFU, ZEB2 / Fold change vs veh, ZEB2 / RFU, NRIP1 / Fold change vs veh, NRIP1 / RFU, PTTG1IP / Fold change vs veh, PTTG1IP / RFU, CAPN2 / Fold change vs veh, CAPN2 / RFU, MED14 / Fold change vs veh, MED14 / RFU, SNORA58 / Fold change vs veh, SNORA58 / RFU, C1orf63 / Fold change vs veh, C1orf63 / RFU, LRRFIP1 / Fold change vs veh, LRRFIP1 / RFU, NDUFAF7 / Fold change vs veh, NDUFAF7 / RFU, SLC12A2 / Fold change vs veh, SLC12A2 / RFU, IBTK / Fold change vs veh, IBTK / RFU, ESF1 / Fold change vs veh, ESF1 / Fold change vs veh, TMEM50B / RFU, TAOK1 / Fold change vs veh, TAOK1 / RFU, ACBD3 / Fold change vs veh, ACBD3 / RFU, TMA16 / Fold change vs veh, TMA16 / RFU, RWDD3 / Fold change vs veh, RWDD3 / RFU, BCAT1 / Fold change vs veh, BCAT1 / RFU, EDEM3 / Fold change vs veh, EDEM3 / RFU, TMEM33 / Fold change vs veh, TMEM33 / RFU, WDR75 / Fold change vs veh, WDR75 / RFU, AHCTF1 / Fold change vs veh, AHCTF1 / RFU, TFRC / Fold change vs veh, TFRC / RFU, ZDHHC17 / Fold change vs veh, ZDHHC17 / RFU, NOM1 / Fold change vs veh, NOM1 / RFU, ARL8B / Fold change vs veh, ARL8B / RFU, ZBTB11 / Fold change vs veh, ZBTB11 / RFU, TAMM41 / Fold change vs veh, TAMM41 / RFU, KIAA1704 /// LOC100996395 / Fold change vs veh, KIAA1704 /// LOC100996395 / RFU, ING1 / Fold change vs veh, ING1 / RFU, TRMT61B / Fold change vs veh, TRMT61B / RFU, FUBP3 / Fold change vs veh, FUBP3 / RFU, TP53 / Fold change vs veh, TP53 / RFU, TNKS2 / Fold change vs veh, TNKS2 / RFU, ZFP14 / Fold change vs veh, ZFP14 / RFU, ACTR2 / Fold change vs veh, ACTR2 / RFU, PPP3R1 / Fold change vs veh, PPP3R1 / RFU, PIK3R1 / Fold change vs veh, PIK3R1 / RFU, HNRNPA1 / Fold change vs veh, HNRNPA1 / RFU, RNF170 / Fold change vs veh, RNF170 / RFU, ZNF28 / Fold change vs veh, ZNF28 / RFU, RNGTT / Fold change vs veh, RNGTT / RFU, OGT / Fold change vs veh, OGT / RFU, BRD1 / Fold change vs veh, BRD1 / RFU, MARS / Fold change vs veh, MARS / RFU, ZNF655 / Fold change vs veh, ZNF655 / RFU, FAHD1 / Fold change vs veh, FAHD1 / RFU, BDP1 / Fold change vs veh, BDP1 / RFU, LRRCC1 / Fold change vs veh, LRRCC1 / RFU, ARID1A / Fold change vs veh, ARID1A / RFU, ZNF146 / Fold change vs veh, ZNF146 / RFU, ZNF330 / Fold change vs veh, ZNF330 / RFU, GPN3 / Fold change vs veh, GPN3 / RFU, C9orf123 / Fold change vs veh, C9orf123 / RFU, N4BP2L2 / Fold change vs veh, N4BP2L2 / RFU, ARFIP1 / Fold change vs veh, ARFIP1 / RFU, FAM179B / Fold change vs veh, FAM179B / RFU, BCL10 / Fold change vs veh, BCL10 / RFU, UHRF1BP1L / Fold change vs veh, UHRF1BP1L / RFU, BET1 / Fold change vs veh, BET1 / RFU, CNOT2 / Fold change vs veh, CNOT2 / RFU, ZNF268 / Fold change vs veh, ZNF268 / Fold change vs veh, ZNF507 / RFU, DGCR2 / Fold change vs veh, DGCR2 / RFU, WDSUB1 / Fold change vs veh, WDSUB1 / Fold change vs veh, HSP90B1 /// MIR3652 / RFU, ADSS / Fold change vs veh, ADSS / RFU, GK / Fold change vs veh, GK / RFU, ZNF148 / Fold change vs veh, ZNF148 / RFU, TAF9 / Fold change vs veh, TAF9 / RFU, SLC1A5 / Fold change vs veh, SLC1A5 / RFU, SLMO2 / Fold change vs veh, SLMO2 / RFU, ABCC4 / Fold change vs veh, ABCC4 / RFU, LOC101060439 /// RAP1B / Fold change vs veh, LOC101060439 /// RAP1B / RFU, RFX7 / Fold change vs veh, RFX7 / RFU, GTPBP10 / Fold change vs veh, GTPBP10 / RFU, CNEP1R1 / Fold change vs veh, CNEP1R1 / RFU, BIVM-ERCC5 /// ERCC5 / Fold change vs veh, BIVM-ERCC5 /// ERCC5 / RFU, ILF3 / Fold change vs veh, ILF3 / RFU 11762660_at / Fold change /veh 11762660_at / RFU VCAN (11757783_s_at) / Fold change /veh VCAN (11757783_s_at) / RFU DDX43 (11728927_at) / Fold change /veh DDX43 (11728927_at) / RFU KRT8 (11758188_x_at) / Fold change /veh KRT8 (11758188_x_at) / RFU NKD1 (11759106_at) / Fold change /veh NKD1 (11759106_at) / RFU SRD5A1 (11742802_a_at) / Fold change /veh SRD5A1 (11742802_a_at) / RFU TPSAB1 /// TPSB2 (11721975_s_at) / Fold change /veh TPSAB1 /// TPSB2 (11721975_s_at) / RFU GSTM3 (11746129_a_at) / Fold change /veh GSTM3 (11746129_a_at) / RFU IL23R (11737362_x_at) / Fold change /veh IL23R (11737362_x_at) / RFU TMEM51 (11727254_a_at) / Fold change /veh TMEM51 (11727254_a_at) / RFU PIWIL2 (11732686_x_at) / Fold change /veh PIWIL2 (11732686_x_at) / RFU ORM1 (11744905_x_at) / Fold change /veh ORM1 (11744905_x_at) / RFU CCDC152 (11743942_at) / Fold change /veh CCDC152 (11743942_at) / RFU ECM1 (11717891_a_at) / Fold change /veh ECM1 (11717891_a_at) / RFU IL23R (11748794_a_at) / Fold change /veh IL23R (11748794_a_at) / RFU TNFAIP8L3 (11732012_x_at) / Fold change /veh TNFAIP8L3 (11732012_x_at) / RFU MBOAT4 (11741988_at) / Fold change /veh MBOAT4 (11741988_at) / RFU 11764193_at / Fold change /veh 11764193_at / RFU TMEM53 (11763286_at) / Fold change /veh TMEM53 (11763286_at) / RFU MAGEB2 (11727129_at) / Fold change /veh MAGEB2 (11727129_at) / RFU TMEM200A (11744735_a_at) / Fold change /veh TMEM200A (11744735_a_at) / RFU CCDC152 (11751479_a_at) / Fold change /veh CCDC152 (11751479_a_at) / RFU FAM211A (11726209_a_at) / Fold change /veh FAM211A (11726209_a_at) / RFU RGS16 (11746705_a_at) / Fold change /veh RGS16 (11746705_a_at) / RFU VCAN (11755009_s_at) / Fold change /veh VCAN (11755009_s_at) / RFU RHOB (11743442_s_at) / Fold change /veh RHOB (11743442_s_at) / RFU RGS16 (11720943_a_at) / Fold change /veh RGS16 (11720943_a_at) / RFU RGS16 (11720944_at) / Fold change /veh RGS16 (11720944_at) / RFU, VPS4B / Fold change vs veh, VPS4B / RFU, CREB1 / Fold change vs veh, CREB1 / RFU, DNAJC13 / Fold change vs veh, DNAJC13 / RFU, GNAQ / Fold change vs veh, GNAQ / RFU, CDK5R1 / Fold change vs veh, CDK5R1 / RFU, ZRANB3 / Fold change vs veh, ZRANB3 / RFU, CUL4A / Fold change vs veh, CUL4A / RFU, CCNY / Fold change vs veh, CCNY / RFU, UFL1 / Fold change vs veh, UFL1 / RFU, COG3 / Fold change vs veh, COG3 / RFU, DIAPH2 / Fold change vs veh, DIAPH2 / RFU, SKA2 / Fold change vs veh, SKA2 / RFU, AFF3 / Fold change vs veh, AFF3 / RFU, LMF1 / Fold change vs veh, LMF1 / RFU, IPO11 / Fold change vs veh, IPO11 / RFU, DFFB / Fold change vs veh, DFFB / RFU, FOXP1 / Fold change vs veh, FOXP1 / RFU, CARD8 / Fold change vs veh, CARD8 / RFU, STRN3 / Fold change vs veh, STRN3 / RFU, ADK / Fold change vs veh, ADK / RFU, RASSF2 / Fold change vs veh, RASSF2 / RFU, WIPF1 / Fold change vs veh, WIPF1 / RFU, LARP1B / Fold change vs veh, LARP1B / RFU, RASA1 / Fold change vs veh, RASA1 / RFU, RB1 / Fold change vs veh, RB1 / RFU, PPFIA1 / Fold change vs veh, PPFIA1 / RFU, MAT2A / Fold change vs veh, MAT2A / RFU, CCT5 / Fold change vs veh, CCT5 / RFU, WDR92 / Fold change vs veh, WDR92 / RFU, CUX1 / Fold change vs veh, CUX1 / RFU, TTC7A / Fold change vs veh, TTC7A / RFU, TMEM135 / Fold change vs veh, TMEM135 / RFU, DEPTOR / Fold change vs veh, DEPTOR / RFU, CPM / Fold change vs veh, CPM / RFU, DNAJB6 / Fold change vs veh, DNAJB6 / RFU, CACNA2D3 / Fold change vs veh, CACNA2D3 / RFU, DTX4 / Fold change vs veh, DTX4 / RFU, TFCP2 / Fold change vs veh, TFCP2 / RFU, GMCL1 /// GMCL1P1 / Fold change vs veh, GMCL1 /// GMCL1P1 / RFU, AEBP2 / Fold change vs veh, AEBP2 / RFU, SNHG1 /// SNORD22 /// SNORD25 /// SNORD26 /// SNORD27 /// SNORD28 /// SNORD29 /// SNORD31 / Fold change vs veh, SNHG1 /// SNORD22 /// SNORD25 /// SNORD26 /// SNORD27 /// SNORD28 /// SNORD29 /// SNORD31 / Fold change (Aza/veh), C12orf56 (ProbeSet 11735607_a_at) / Fold change (ACY-1035/veh), C12orf56 (ProbeSet 11735607_a_at) / Fold change (Aza/veh), FGFR1OP (ProbeSet 11751329_s_at) / Fold change (ACY-1035/veh), FGFR1OP (ProbeSet 11751329_s_at) / Fold change (Aza/veh), VPS36 (ProbeSet 11739960_a_at) / Fold change (ACY-1035/veh), VPS36 (ProbeSet 11739960_a_at) / RFU SYPL1 (11715823_x_at) / Fold change /veh SYPL1 (11715823_x_at) / RFU IGFBP7 (11715501_s_at) / Fold change /veh IGFBP7 (11715501_s_at) / RFU REEP3 (11722064_at) / Fold change /veh REEP3 (11722064_at) / RFU IGLL1 (11728026_x_at) / Fold change /veh IGLL1 (11728026_x_at): dose or concentration left out as unconfirmed
Details: MV-4-11 cells, 48 hours

Nc1ccc(-c2cccs2)cc1NC(=O)c1ccc2c(c1)cc(C1CC1)n2CCN1CCOCC1 [ACY-1035]
RFU OR4N2 (11742367_at): 72.30 RFU
